Experiments:
[1] = test system: bacterial mix from mouse fecal samples; experiment: Growth of bacterial mix from fresh mouse fecal content in media with polyamines; format: cell-based; conditions: in vitro, various concentrations; exponential growth phase
Description: (§1) The inventors next investigated whether culturing several bacteria with beneficial metabolic effects can be affected by presence of polyamines in the growth media. […] To further address whether the general growth of bacteria present in fresh fecal samples is affected, we inoculated fresh mouse fecal content in a growth media supplemented with various concentrations of spermine or spermidine.

[2] = test system: Parabacteroides goldsteinii; experiment: Bacterial growth in media supplemented with polyamines; format: cell-based; conditions: in vitro, various concentrations in growth media
Description: as §1

Lactobacillus Reuteri = experiment: as above; format: cell-based; conditions: in vitro, various concentrations in growth media
Description: as §1

Lactobacillus Gaseri = experiment: as above; format: cell-based; conditions: in vitro, various concentrations in growth media
Description: as §1

ovariectomized mice [3] = experiment: Insulin tolerance test in ovariectomized mice gavaged with bacteria; format: in vivo; conditions: 0.5 U/kg insulin, glycemia over 2 h
Procedure: (§2) Ovariectomy: Mice were anesthetised with Xylazin/Ketamin (injection of 120 μl of a mixture of 120 mg/kg ketamine and 16 mg/kg xylazine) and shaved below the ribs on the back side. Betadine was applied to the area for appropriate disinfection. After a 1-2 cm incision through the skin and the muscle layer just below the ribs, the ovary was localized, the fallopian tube ligated with dissolving suture and the ovary removed. The muscle layer was sutured with dissolving suture, the wound closed with staples and disinfected. The same procedure was performed on the other side. A dose of Tamgesic was administered 4 hours after the surgery, and the staples were removed 7 days after the surgery under isoflurane anaesthesia. The sham-operated animals underwent the same procedure, without ligating the fallopian tube and the ovary excision.
(§3) Single microbe transplantation: Lactobacillus Gasseri (DSM 20604) and Parabacteroides Goldsteinii (DSM 19948) were purchased from DSMZ. Lactobacillus reuteri (PTA-6475) and Akkermansia Muciniphila (BAA835) was purchased from ATCC. […]
(§4) Metabolic Experiments: Oral glucose tolerance tests (OGTT) were performed after 10 hr overnight fasting by oral gavage of glucose bolus ([…] body weight). […] Insulin level during the OGTT was measured with the Mouse Insulin ELISA kit (ref. 10-1247-01, Mercodia), following the manufacturer's instructions.

ovariectomized mice [4] = experiment: Oral glucose tolerance test (OGTT) in ovariectomized mice gavaged with bacteria; format: in vivo; conditions: oral gavage every second day
Procedure: as §2, §3, §4

Compound | Optical density of fecal bacterial mix [1] | Growth of Parabacteroides goldsteinii [2] | Growth of Lactobacillus Reuteri (Lactobacillus Reuteri) | Growth of Lactobacillus Gaseri (Lactobacillus Gaseri) | Insulin sensitivity (insulin tolerance test) (ovariectomized mice [3]) | Oral glucose tolerance (ovariectomized mice [4])
NCCCCNCCCN [spermidine] | increased the optical density during the exponential growth phase | increased the growth | increased the growth | increased the growth |  | 
NCCCNCCCCNCCCN [spermine, N, N′-bis (3-aminopropyl)-1,4-butane diamine] | increased the optical density during the exponential growth phase | increased the growth | increased the growth | increased the growth |  | 
Lactobacillus Reuteri |  |  |  |  | improved | improved
